In paper PMC3412845, “Waking Action of Ursodeoxycholic Acid (UDCA) Involves Histamine and GABAA Receptor Block” (PLoS ONE, 2012):

Key:
[1] = system: NMDA receptors; test: NMDA-evoked currents in isolated neurons; format: cell-based
Protocol: (§1) Recordings from histaminergic neurons in male Wistar rat (22–26 day old) or 30–60 day old mouse (SV129, histidine decarboxylase deficient HDC−/− or their wild type littermates) hypothalamic slices were performed as previously described. Slices were obtained between 9 and 11 a.m. In the beginning of whole-cell voltage clamp recordings TMN neurons were identified with the help of DIC microscopy and electrophysiological criteria as previously described. Inhibitory postsynaptic currents (IPSCs) were evoked by local stimulation through a bipolar stainless-steel stimulating electrode (50 µm; WPI, UK). The stimulation of axonal endings coming to TMN from ventrolateral preoptic area (VLPO) was done as described in [22]. Visual identification of histaminergic neurons recorded in cell-attached configuration (see [16]) was confirmed by the significant reduction of firing rate by the histamine 3 (H3) receptor agonist R-α-methylhistamine (0.2 µM), which was performed at the end of each experiment. Individual neurons were separated by vibrodissociation after brief preincubation with papain from the hypothalamic slices of mice or rats and identified as TMN neurons according to their size and shape. Identification was confirmed post hoc with the single-cell RT-PCR (all data presented in the manuscript were obtained from histidine decarboxylase-expressing neurons), [40]. TMN neurons from HDC−/− mice were identified by the expression of peripherin [16]. Whole-cell voltage-clamp recordings from isolated neurons were done with an EPC-9 amplifier and TIDA for Windows (HEKA, Lambrecht, Germany) at room temperature. Membrane potentials were not corrected for liquid junction potential (5.6 mV, calculated with LJPCalc, Barry, 1994). The intracellular solution was composed of (in mM) 140 KCl, 2 MgCl2, 0.5 CaCl2, 5 EGTA, 2 ATP and 10 HEPES (pH 7.2 adjusted with NaOH). A fast perfusion technique was used for application of ligands and modulators of fast ionotropic receptors, [41]. […] EC50 is the ligand concentration producing a half-maximal response, [ligand] is ligand concentration, and n is the Hill slope. Hill coefficients were obtained from the slope of the log/log plot of the dose-response curves. […] Steady-state amplitudes of the responses were used for the construction of dose-response plots if not mentioned otherwise.
For the testing of UDCA action at NMDA receptors a maximal 0.2 mM concentration of agonist was used. Recordings were done in Mg^2+ -free solution in the presence of 10 µM of glycine. NMDA-currents were abolished by the NMDA receptor antagonist D-AP5 (100 µM).

[2] = system: TMN neurons; test: Firing of TMN neurons recorded in hypothalamic slices; format: cell-based, mouse; details: UDCA 100 µM, n = 10
Protocol: Recordings from histaminergic neurons in male Wistar rat (22–26 day old) or 30–60 day old mouse (SV129, histidine decarboxylase deficient HDC−/− or their wild type littermates) hypothalamic slices were performed as previously described. Slices were obtained between 9 and 11 a.m. In the beginning of whole-cell voltage clamp recordings TMN neurons were identified with the help of DIC microscopy and electrophysiological criteria as previously described. Inhibitory postsynaptic currents (IPSCs) were evoked by local stimulation through a bipolar stainless-steel stimulating electrode (50 µm; WPI, UK). The stimulation of axonal endings coming to TMN from ventrolateral preoptic area (VLPO) was done as described in [22]. […] Individual neurons were separated by vibrodissociation after brief preincubation with papain from the hypothalamic slices of mice or rats and identified as TMN neurons according to their size and shape. Identification was confirmed post hoc with the single-cell RT-PCR (all data presented in the manuscript were obtained from histidine decarboxylase-expressing neurons), [40]. TMN neurons from HDC−/− mice were identified by the expression of peripherin [16]. […] Membrane potentials were not corrected for liquid junction potential (5.6 mV, calculated with LJPCalc, Barry, 1994). […]

[3] = biological target: T1, β3γ2L GABAA receptors (UniProt P22723+P28472); test: Patch-clamp of recombinant β3γ2L receptors in HEK293 cells, histamine-evoked currents; format: cell-based, human β3, mouse γ2L; details: histamine 5 mM
T1 construct: expressed in transfected cells; host or cells: HEK293
Protocol: HEK 293 cells were obtained from DSM (Deutsche Sammlung von Mikroorganismen und Zellkulturen GmbH, DSM, Braunschweig). They were grown and maintained according to published standard protocols. Briefly, cells were grown in minimal essential medium supplemented with 10% fetal bovine serum, 100units/ml penicillin and streptomycin and 2 mM L-glutamine and splitted once per week. Semiconfluent cells were transfected on the third day after splitting with the help of Lipofectamine 2000 (Invitrogen), recordings were done 48–72 hrs after transfection.
The GABAAR subunit cDNAs, generously donated by G.Gisselmann (rat α1, mouse γ2L, rat β1, β2 and human β3 [26]) and J.H. Steinbach (rat α1V256S [28] and rat α1Q241L [44]), were subcloned into pcDNA3 (Invitrogen, Karlsruhe, Germany) and applied in a ratio 1∶1∶1 for the α1βxγ2L receptor and 1∶1 for α1β3 or β3γ2L receptors. […] For each receptor type patch clamp recordings were obtained from at least three separate transfections. Whole-cell patch clamp recordings were done in a similar extracellular solution as for the native cells (see above) except that the concentration of MgCl2 was reduced to 1.2 mM. Intracellular electrodes contained 140 mM CsCl (instead of KCl), pH adjusted with CsOH. The voltage was held at −40 mV.

[4] = system: isolated TMN neurons (sIPSCs); test: sIPSCs in acutely isolated and cultured neurons; format: cell-based
Protocol: as §1, with “Visual identification of histaminergic neurons recorded in cell-attached configuration (see [16]) was confirmed by the significant reduction of firing rate by the histamine 3 (H3) receptor agonist R-α-methylhistamine (0.2 µM), which was performed at the end of each experiment.” left out

T1 sequence (P28472 26-473): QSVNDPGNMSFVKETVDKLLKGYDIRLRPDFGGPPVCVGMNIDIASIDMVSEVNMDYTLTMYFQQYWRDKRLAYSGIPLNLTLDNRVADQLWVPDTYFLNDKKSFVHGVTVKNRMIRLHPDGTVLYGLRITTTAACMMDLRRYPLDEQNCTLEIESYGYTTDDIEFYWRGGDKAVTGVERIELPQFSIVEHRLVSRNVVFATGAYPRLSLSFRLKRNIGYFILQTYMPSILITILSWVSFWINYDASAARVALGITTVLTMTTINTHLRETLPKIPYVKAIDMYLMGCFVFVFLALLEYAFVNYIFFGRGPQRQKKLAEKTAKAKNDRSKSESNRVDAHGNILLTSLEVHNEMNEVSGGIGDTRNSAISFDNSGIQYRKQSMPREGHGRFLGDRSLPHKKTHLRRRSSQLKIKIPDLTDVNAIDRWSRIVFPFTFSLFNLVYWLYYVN
T1 sequence (P22723 39-474): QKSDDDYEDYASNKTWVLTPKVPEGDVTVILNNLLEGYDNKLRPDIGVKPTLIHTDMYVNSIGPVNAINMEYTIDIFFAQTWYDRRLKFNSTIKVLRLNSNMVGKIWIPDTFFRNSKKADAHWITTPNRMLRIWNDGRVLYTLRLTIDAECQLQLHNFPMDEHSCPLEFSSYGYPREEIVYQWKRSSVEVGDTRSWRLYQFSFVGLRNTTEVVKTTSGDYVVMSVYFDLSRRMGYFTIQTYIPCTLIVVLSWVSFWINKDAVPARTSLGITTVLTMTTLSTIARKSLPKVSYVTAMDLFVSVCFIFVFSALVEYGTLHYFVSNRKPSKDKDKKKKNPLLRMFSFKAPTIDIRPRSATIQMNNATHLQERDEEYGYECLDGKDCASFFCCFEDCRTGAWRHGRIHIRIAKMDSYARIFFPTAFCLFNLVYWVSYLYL

C[C@H](CCC(=O)O)[C@H]1CC[C@H]2[C@@H]3[C@@H](O)C[C@@H]4C[C@H](O)CC[C@]4(C)[C@H]3CC[C@]12C [UDCA, ursodeoxycholic acid]
concentration above which block of NMDA receptors starts [1]: higher than 100 µM
NMDA-receptor mediated currents ([1]; 100 µM): did not affect
IC50 ([1]; read-out: IC50 of NMDA receptor block, n = 4, NMDA 0.2 mM, Mg2+-free, 10 µM glycine): 540 ± 40 µM
firing at the end of UDCA application [2]: 86±5 % of control
Hill coefficient nH of UDCA block [3]: 0.62
IC50 ([3]; read-out: IC50 of block of histamine-evoked currents): 232 ± 66 µM
decay kinetics of sIPSCs ([4]; 10 µM): significantly accelerated the decay kinetics of sIPSCs in some
decay kinetics of sIPSCs ([4]; 30 µM): significantly reducing decay kinetics in all investigated neurons
